Source: PubChem BioAssay (NCI)
Several values for one entry are separate records, joined by “and”; a condition that tells them apart may be missing. Identical values can stand only once.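 These data come from cells grown in 96-well plates and exposed to compound for 48 hours at five concentrations. GI50 = concentration required for 50% inhibition of growth. TGI: total growth inhibition.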

How the values were obtained:
Test in all cases: NCI-60 cell line screen, 48 h
A549 NSCLC = system: A549 NSCLC
SW-620 colon = system: SW-620 colon
SNB-19 CNS = system: SNB-19 CNS
CAKI-1 renal = system: CAKI-1 renal
UACC-257 melanoma = system: UACC-257 melanoma
OVCAR-4 ovarian = system: OVCAR-4 ovarian
NCI/ADR-RES ovarian = system: NCI/ADR-RES ovarian
HCT-116 colon = system: HCT-116 colon
HCC-2998 colon = system: HCC-2998 colon
SNB-75 CNS = system: SNB-75 CNS

## O=C1CCC(N2C(=O)c3cccc(NCCCC4CCN(CCNC(=O)c5cc6c(o5)C(=O)c5ccccc5C6=O)CC4)c3C2=O)C(=O)N1 (stereo not given)
A549 NSCLC
  GI50: 189 nM
  TGI: 471 nM
SW-620 colon
  GI50: 450 nM
  TGI: 1860 nM
SNB-19 CNS
  GI50: 673 nM
  TGI: 1970 nM
CAKI-1 renal
  GI50: 2170 nM
  TGI: 9130 nM
UACC-257 melanoma
  GI50: 632 nM
  TGI: 1870 nM
OVCAR-4 ovarian
  GI50: 747 nM
  TGI: 2080 nM
NCI/ADR-RES ovarian
  GI50: 2890 nM
  TGI: 14700 nM
HCT-116 colon
  GI50: 465 nM
  TGI: 2380 nM
HCC-2998 colon
  GI50: 695 nM
  TGI: 1810 nM
SNB-75 CNS
  GI50: 1530 nM
  TGI: 2880 nM

## O=S(=O)(NC1=NCCN1C(=S)SN1CCn2c1nsc2=S)c1cccc(OC(F)(F)F)c1
A549 NSCLC
  GI50: 17400 nM
  TGI: 44800 nM
SW-620 colon
  GI50: 6700 nM
  TGI: > 100000 nM
SNB-19 CNS
  GI50: 18000 nM
  TGI: 45400 nM
CAKI-1 renal
  GI50: 17800 nM
  TGI: 43500 nM
UACC-257 melanoma
  GI50: 17300 nM
  TGI: 38100 nM
OVCAR-4 ovarian
  GI50: 12500 nM
  TGI: 27900 nM
NCI/ADR-RES ovarian
  GI50: 12000 nM
  TGI: 44800 nM
HCT-116 colon
  GI50: 10200 nM
  TGI: 21900 nM
HCC-2998 colon
  GI50: 5160 nM
  TGI: 16100 nM
SNB-75 CNS
  GI50: 16200 nM
  TGI: 38900 nM

## C=CCn1c(=O)c2cnc(Nc3ccc(N4CCN(C)CC4)cc3)nc2n1-c1cccc(C(C)(C)O)n1
A549 NSCLC
  GI50: 1140 nM and 1470 nM
  TGI: 11400 nM and > 10000 nM
SW-620 colon
  GI50: 316 nM and 448 nM
  TGI: 12300 nM and > 10000 nM
SNB-19 CNS
  GI50: 1170 nM and 526 nM
  TGI: > 100000 nM
CAKI-1 renal
  GI50: 240 nM and 152 nM
  TGI: 16700 nM and > 10000 nM
UACC-257 melanoma
  GI50: 675 nM and > 4690 nM
  TGI: 18700 nM and > 10000 nM
OVCAR-4 ovarian
  GI50: 373 nM and 507 nM
  TGI: 28700 nM and > 10000 nM
NCI/ADR-RES ovarian
  GI50: 2190 nM and 2730 nM
  TGI: 18600 nM and > 10000 nM
HCT-116 colon
  GI50: 321 nM and 328 nM
  TGI: 11400 nM and > 10000 nM
HCC-2998 colon
  GI50: 388 nM and 1130 nM
  TGI: 7260 nM and > 7720 nM
SNB-75 CNS
  GI50: 1440 nM and 717 nM
  TGI: 8680 nM and 6370 nM
